# Read-outs that look alike come from different tables or passages of the source.
# How the values were obtained:
# [1] = Steady-state pharmacokinetics of gemcabene at 300, 600, 900 mg/day in FH patients; assay type: in vivo, human; details: for Cmax / AUC(0-t) / CL/F: mean
# Protocol: This was an open-label, dose-finding, 3-period, 3-treatment study using successively escalating doses of 300 mg, 600 mg, and 900 mg gemcabene calcium salt hydrate Crystal Form 1 having PSD90 of 52 μm in patients clinically diagnosed with familial hypercholesterolemia (FH). The treatment plan was for each of 8 patients to receive each of the successive doses, daily, for 4 weeks at a time with no interruption in gemcabene calcium salt hydrate Crystal Form 1 dosing between the dose levels. That is, the 8 FH patients were administered daily oral doses of gemcabene calcium salt hydrate Crystal Form 1 having PSD90 of 52 μm at 300 mg/day on Days 1-28, 600 mg/day on Days 29-56, and 900 mg/day on Days 57-84. Pharmacokinetic plasma samples were collected pre-dose and 0.5, 1, 2, 3, 5, and 12 hours post-dose on Day 28, Day 56, and Day 84. Additional (trough) samples were collected pre-dose on Day 14, Day 42, Day 70, and at the Early Termination Visit (if applicable). Plasma from these samples were analyzed for gemcabene concentrations and the data used for PK analysis. Plasma sample concentrations were available for pharmacokinetic analysis for all but 1 patient for whom no results were reported following the 900 mg dose on Day 84. Since there were no days off between dose levels, the starting plasma concentration for the 600 mg and 900 mg treatment periods was the steady state concentration for 300 mg and 600 mg, respectively.
# During Days 1-28, patients received one 300-mg strength tablet containing gemcabene calcium salt hydrate Crystal Form 1 having PSD90 of 52 μm (Tablet D); during the Days 29-56, patients received two 300-mg strength tablets (2× Tablet D); and during the Days 57-84, patients received three 300-mg strength tablets (3× Tablet D) per day.
# PK parameter estimates were derived by standard non-compartmental analysis methods using a validated installation of Phoenix® WinNonlin® version 6.4. The actual sampling times were used in the PK parameter calculations.
# All plasma concentrations reported as missing were treated as missing. Steady state was assumed following QD administration for 28 days and therefore, plasma gemcabene concentrations at 24 hours post-dose were used as the pre-dose concentrations.
# The following gemcabene PK parameters were calculated for each patient from the plasma concentration-time data:
# AUClast and AUC(0-24) were calculated by numeric integration using the trapezoidal rule with linear up and log down interpolation.
# The criterion for dose proportionality is 95% CI around the slope containing the value “1”.
# The individual patient and gemcabene concentration-time data are listed using the number of significant digits or decimal places provided by the bioanalytical lab and nominal sample times, and summarized descriptively in tabular formats by dose level, and visit (for trough samples).
# [2] = Steady-state plasma gemcabene pharmacokinetics, 600 mg daily, healthy female subjects; assay type: in vivo; details: human, oral
# Protocol: (§1) An open-label, two-sequence, cross-over study to assess the steady-state effects of gemcabene on the single-dose pharmacokinetics (PK) of oral contraceptive tablets in healthy female subjects was conducted with 300 mg tablets containing gemcabene calcium salt hydrate Crystal Form 1 having PSD90 of 52 μm (Tablet F).
# (§2) The population for this study was generally healthy, adult female subjects of childbearing potential (≥18 to ≤35 years of age). This population supports the overall objective of the study to evaluate the effect of 600 mg of gemcabene calcium salt hydrate Crystal Form 1 having PSD90 of 52 μm at steady-state on the PK of a single dose of ON 1/35 (Ortho Novum 1/35; combined ethinyl estradiol/norethindrone oral contraceptive). The primary objective of this study was to assess the effect of daily 600 mg of gemcabene calcium salt hydrate Crystal Form 1 having PSD90 of 52 μm at steady-state on the pharmacokinetics (PK) of ON 1/35. The secondary objectives of this study were to assess the safety and tolerability of daily gemcabene 600 mg in combination with a single-dose ON 1/35 and to assess the steady-state PK of 600 mg of gemcabene calcium salt hydrate Crystal Form 1 having PSD90 of 52 μm (Tablet F×2).
# Gemcabene calcium salt hydrate Crystal Form 1 having PSD90 of 52 μm was administered orally as a single dose of 600 mg, given as two 300 mg tablets (300-mg Tablet F×2) (with 240 mL of water). Gemcabene calcium salt hydrate Crystal Form 1 having PSD90 of 52 μm (600 mg) was administered at the same time each day.
# [3] = female, human, in vivo
# Protocol: as §1
# as §2, with “F×2). […]” for “F×2).”
smiles,measurement,setting,value
"CC(C)(CCCCOCCCCC(C)(C)C(=O)O)C(=O)O [gemcabene, 6-(5-carboxy-5-methyl-hexyloxy)-2,2-dimethyl-hexanoic acid]",dose proportionality of AUC(0-24),[1]; 300 mg/day to 900 mg/day,increased dose proportionally
same,dose proportionality of Cmax,[1]; 300 mg/day to 900 mg/day,slightly less than dose proportional
same,Cmax,"[1]; human, oral, 300 mg/day (Tablet D), Day 28 steady state, FH patients, plasma, n=8",84.8 µg/mL
same,Cmax,"[1]; human, oral, 600 mg/day (2× Tablet D), Day 56 steady state, FH patients, plasma, n=8",149 µg/mL
same,Cmax,"[1]; human, oral, 900 mg/day (3× Tablet D), Day 84 steady state, FH patients, plasma, n=7",195 µg/mL
same,AUC(0-t),"[1]; human, plasma, oral, 300 mg/day, 300 mg/day (Tablet D), steady state, FH patients, n=8, read-out: AUC0-24",1550 µg·h/mL
same,AUC(0-t),"[1]; human, plasma, oral, 300 mg/day, 300 mg/day (Tablet D), steady state, FH patients, n=8, read-out: AUClast",1590 µg·h/mL
same,AUC(0-t),"[1]; human, plasma, oral, 600 mg/day, 600 mg/day (2× Tablet D), steady state, FH patients, n=8, read-out: AUC0-24",2680 µg·h/mL
same,AUC(0-t),"[1]; human, plasma, oral, 600 mg/day, 600 mg/day (2× Tablet D), steady state, FH patients, n=8, read-out: AUClast",2700 µg·h/mL
same,AUC(0-t),"[1]; human, plasma, oral, 900 mg/day, 900 mg/day (3× Tablet D), steady state, FH patients, n=7, read-out: AUC0-24",3530 µg·h/mL
same,AUC(0-t),"[1]; human, plasma, oral, 900 mg/day, 900 mg/day (3× Tablet D), steady state, FH patients, n=7, read-out: AUClast",3490 µg·h/mL
same,Tmax,"[1]; human, plasma, oral, 300 mg dose level, after 28 daily doses, min-max 1.0-2.0 h, read-out: Median Tmax",1.6 h
same,CL/F,"[1]; human, plasma, oral, 300 mg/day (Tablet D), steady state, FH patients, n=8",3.55 mL/min
same,Tmax,"[1]; human, plasma, oral, 300 mg/day (Tablet D), steady state, FH patients, median, n=8, read-out: Tmax",1.6 h
same,Tmax,"[1]; human, plasma, oral, 600 mg dose level, after 28 daily doses, min-max 0.93-3.0 h, read-out: Median Tmax",1.5 h
same,CL/F,"[1]; human, plasma, oral, 600 mg/day (2× Tablet D), steady state, FH patients, n=8",3.9 mL/min
same,Tmax,"[1]; human, plasma, oral, 600 mg/day (2× Tablet D), steady state, FH patients, median, n=8, read-out: Tmax",1.5 h
same,Tmax,"[1]; human, plasma, oral, 900 mg dose level, after 28 daily doses, min-max 0.98-3.0 h, read-out: Median Tmax",1.9 h
same,CL/F,"[1]; human, plasma, oral, 900 mg/day (3× Tablet D), steady state, FH patients, n=7",4.52 mL/min
same,Tmax,"[1]; human, plasma, oral, 900 mg/day (3× Tablet D), steady state, FH patients, median, n=7, read-out: Tmax",1.9 h
same,concentration at 14 day of the 900 mg/day period,"[1]; human, plasma, oral, 900 mg/day treatment period, Day 14, read-out: trough gemcabene plasma concentration, patient 006-003",122 µg/mL
same,concentration at 28 day of the 900 mg/day period,"[1]; human, plasma, oral, 900 mg/day treatment period, Day 28, read-out: trough gemcabene plasma concentration, patient 006-003",43.5 µg/mL
same,Tmax,"[1]; human, plasma, oral, 300 to 900 mg/day, read-out: median Tmax values across dose levels",1.5 to 1.9 h
same,concentration at 6 day,"[2]; Day 6, Treatment B, read-out: mean plasma gemcabene trough concentration",98.8 µg/mL
same,concentration at 7 day,"[2]; Day 7, Treatment B, read-out: mean plasma gemcabene trough concentration",106 µg/mL
same,concentration at 8 day,"[2]; Day 8, Treatment B, read-out: mean plasma gemcabene trough concentration",104 µg/mL
same,Cmax,"[2]; steady state, read-out: mean Cmax,ss",178 µg/mL
same,subjects with drug-related TEAE (constipation),[3],1 subject
